Reference: patent US7049289B1, “Labelled glutamine and lysine analogues” (Amersham PLC, priority 1998, dated 2006)
*1 amine or outer side, *2 acyl side, *3 side chain or, on linkers, in order; H or OH if unused. Glutaryl = O=C(CCCC(=O)[*:2])[*:1]; code Z = not defined here

Columns and labels:
[1] = molecular target: T1, fibrin (in vitro human plasma clot) (Homo sapiens, UniProt P02671+P02675+P02679); assay: Incorporation into human plasma clots in vitro; assay type: biochemical; conditions: for % specific uptake: % retained (with thrombin) - % retained (no thrombin); for % retained (no thrombin): control without thrombin and calcium chloride (non-specific binding); for % retained (with thrombin): human plasma clot, 60 minutes, ca. 20° C.
T1 construct: about 400 μl of human plasma containing the radiolabelled substrate; from tissue; host or cells: human plasma, clotted in vitro with added thrombin and calcium chloride
T1 sequence (P02671 20-644 isoform P02671-2 limits assumed): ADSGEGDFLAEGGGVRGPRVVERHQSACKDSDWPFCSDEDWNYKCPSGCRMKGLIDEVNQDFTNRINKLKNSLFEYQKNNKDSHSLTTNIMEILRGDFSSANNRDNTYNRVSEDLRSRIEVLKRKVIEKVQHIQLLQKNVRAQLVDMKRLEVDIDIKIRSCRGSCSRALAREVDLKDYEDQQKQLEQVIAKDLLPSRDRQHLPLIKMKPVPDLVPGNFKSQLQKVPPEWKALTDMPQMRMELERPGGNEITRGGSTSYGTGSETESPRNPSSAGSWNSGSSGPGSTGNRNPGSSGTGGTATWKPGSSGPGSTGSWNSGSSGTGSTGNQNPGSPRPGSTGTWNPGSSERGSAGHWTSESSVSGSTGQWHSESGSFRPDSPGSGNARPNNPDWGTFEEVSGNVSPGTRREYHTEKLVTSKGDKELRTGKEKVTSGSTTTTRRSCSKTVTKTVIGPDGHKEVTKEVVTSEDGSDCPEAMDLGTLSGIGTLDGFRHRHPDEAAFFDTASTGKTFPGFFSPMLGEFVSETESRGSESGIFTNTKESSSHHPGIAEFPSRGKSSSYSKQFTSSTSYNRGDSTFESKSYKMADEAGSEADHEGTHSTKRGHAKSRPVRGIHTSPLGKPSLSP
T1 sequence (P02675 45-491 limits assumed): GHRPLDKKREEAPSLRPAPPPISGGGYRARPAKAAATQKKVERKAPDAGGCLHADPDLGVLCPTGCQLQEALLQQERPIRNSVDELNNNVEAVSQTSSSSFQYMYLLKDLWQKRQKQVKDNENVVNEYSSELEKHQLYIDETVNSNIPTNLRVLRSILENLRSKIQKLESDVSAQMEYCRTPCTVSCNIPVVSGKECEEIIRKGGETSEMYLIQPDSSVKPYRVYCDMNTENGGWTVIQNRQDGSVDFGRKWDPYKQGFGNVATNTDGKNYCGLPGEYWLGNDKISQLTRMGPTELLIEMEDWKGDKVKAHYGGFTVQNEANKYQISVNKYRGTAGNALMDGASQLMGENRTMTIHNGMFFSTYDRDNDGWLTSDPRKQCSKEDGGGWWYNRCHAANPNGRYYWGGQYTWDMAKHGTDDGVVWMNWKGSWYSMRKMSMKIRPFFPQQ
T1 sequence (P02679 27-437 isoform P02679-2 limits assumed): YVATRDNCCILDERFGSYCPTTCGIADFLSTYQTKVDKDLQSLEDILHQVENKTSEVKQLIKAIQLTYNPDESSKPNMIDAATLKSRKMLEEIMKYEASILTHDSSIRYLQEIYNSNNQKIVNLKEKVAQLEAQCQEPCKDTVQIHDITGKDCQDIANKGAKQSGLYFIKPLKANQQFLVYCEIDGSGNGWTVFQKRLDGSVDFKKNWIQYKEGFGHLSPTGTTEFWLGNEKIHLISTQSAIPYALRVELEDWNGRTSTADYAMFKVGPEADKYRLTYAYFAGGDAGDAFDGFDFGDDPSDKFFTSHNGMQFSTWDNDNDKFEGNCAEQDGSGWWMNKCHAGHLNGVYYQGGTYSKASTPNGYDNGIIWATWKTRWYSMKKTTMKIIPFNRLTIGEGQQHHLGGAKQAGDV
Summary of the method: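 Human plasma containing radiolabelled substrate (typically 10 kBq/ml) clotted with thrombin in Tris-saline pH 7.5 with 4 mM CaCl2, 60 min at ca. 20 °C, then stopped with cold EDTA. Clots collected on nitrocellulose filters and washed; incorporation is filter-retained radioactivity fraction minus non-specific binding from thrombin/calcium-free controls.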

[2] = Incorporation into clots induced in a rat model (rat inferior vena cava model); assay type: in vivo, rat (Male Wistar); conditions: for % id/g (clot) / Rel. Conc. (cpm/g of clot by dose/g animal): sacrificed after 60 min
Summary of the method: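 Male Wistar rats (250–350 g) under 15% urethane anaesthesia, with the vena cava isolated by laparotomy. Compounds given 5 min (fresh clot) or 60 min (aged clot) after clot induction; clot, blood, lung and heart removed 60 min later, weighed and counted. Uptake expressed as cpm/g clot per dose/g animal and as clot-to-background tissue ratio.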

[3] = Aged Clots: injected 60 min post-induction
[4] = Fresh Clots: injected 5 min post-induction

Substance	% specific uptake [1]	% retained (no thrombin) [1]	% retained (with thrombin) [1]	in vitro clot uptake (in words) [1]	Clot/blood ([2]; Aged Clots)	Clot/heart ([2]; Aged Clots)	Clot/liver ([2]; Aged Clots)	Clot/lung ([2]; Aged Clots)	% id/g (clot) [2, 3]	Rel. Conc. (cpm/g of clot by dose/g animal) [2, 3]	Clot/blood ([2]; Fresh Clots)	Clot/heart ([2]; Fresh Clots)	Clot/liver ([2]; Fresh Clots)	Clot/lung ([2]; Fresh Clots)	% id/g (clot) [2, 4]	Rel. Conc. (cpm/g of clot by dose/g animal) [2, 4]
Pn216-CO(CH2)3CO-G(D-K)(D-L)(D-L)(D-T)(D-Y)(D-P)(D-S)(D-V)NH2 [^99mTc-Cmpd 36]	8.6%	0.1%	8.7%	significant reduction in uptake	0.6	18	4	10	0.1 ± 0.02 % id/g	0.2 ± 0.1	1	3	4	1	0.2 ± 0.1 % id/g	0.7 ± 0.3
Pn216-CO(CH2)3CO-NQEQVSPYTLLKG-NH2 ({Pn216-Glutaryl}-NQEQVSPYTLLKG-NH2; also: 99mTc complex) [^99mTc-Cmpd 39]	23.0%	0.1%	23.1%		15	43	11	12	2.4 ± 0.3 % id/g	8.2 ± 1.1	9	29	31	14	2.5 ± 0.3 % id/g	9.0 ± 1.1
Z-NQEQVSP(I-Y)TLLKG-Pn216 [^99mTc-Cmpd 24]	56.4%	0.4%	56.8%		15	40	37	20	4.1 ± 2.5 % id/g	11.9 ± 8.0	10	21	11	10	4.0 ± 2.2 % id/g	11.1 ± 6.7
Z-NQEQVSPYAAAAG-Pn216 ({code Z}-NQEQVSPYAAAAG-Pn216; reading uncertain; also: 99mTc complex, printed as Z-NQEQVSPYAAAAG-Pn216) [^99mTc-Cmpd 42]	14.0%	0.2%	14.2%		5	21	6	7	0.4 ± 0.1 % id/g	1.3 ± 0.3	2	1	63	0.3	0.3 ± 0.1 % id/g	0.3 ± 0.2
Z-NQEQVSPYTLLKG-Pn216 ({code Z}-NQEQVSPYTLLKG-Pn216; reading uncertain; also: 99mTc complex, printed as Z-NQEQVSPYTLLKG-Pn216) [^99mTc-Cmpd 8]	24.5%	1.4%	25.9%		10	24	16	9	5.3 ± 1.3 % id/g	16.4 ± 4.3	14	41	21	18	6.7 ± 1.7 % id/g	21.0 ± 6.8
p-EAQIVG-Pn44 [^99mTc-Cmpd 46]	6.1%	0.2%	6.3%	significant reduction in uptake	4	5	1	3	0.5 ± 0.2 % id/g	1.3 ± 0.6	5	6	1	3	0.8 ± 0.4 % id/g	2.0 ± 0.7
